System: HCT116 colorectal cancer cells
Assay: Cisplatin sensitization assay (96 h MTS cell viability);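 note: compound concentration needed to lower the IC50 of Cisplatin alone by a set fold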
Assay type: cell-based
Conditions: Cisplatin sensitization value
Method in brief: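 HCT116 cells were dosed simultaneously with compound and cisplatin as a full matrix of 2-fold serial dilutions from 10 μM top final concentration. Incubation was 96 h at 37° C., 5% CO2, followed by 1 h with MTS reagent for the viability read-out. Sensitization values were binned into +++, ++ and + categories.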

Compound	Cisplatin Sensitization Assay
CN1CCN(c2c(C#N)cncc2NC(=O)c2c(N)nn3cc(F)cnc23)CC1 [I-N-113, 2-amino-N-(5-cyano-4-(4-methylpiperazin-1-yl)pyridin-3-yl)-6-fluoropyrazolo[1,5-a]pyrimidine-3-carboxamide]	+ (Compounds with a Cisplatin sensitization value >0.2 μM but <5 μM are marked with “+.”)
Nc1nn2cc(Cl)cnc2c1C(=O)Nc1cnccc1N1CCC(N)CC1 [I-N-86, 2-amino-N-(4-(4-aminopiperidin-1-yl)pyridin-3-yl)-6-chloropyrazolo[1,5-a]pyrimidine-3-carboxamide]	+++ (Compounds with a Cisplatin sensitization value of <0.02 μM are marked with “+++.”)
CC1CN(C)CCN1c1ccncc1NC(=O)c1c(N)nn2cc(Cl)cnc12 (stereo not drawn) [I-N-72, 2-amino-6-chloro-N-(4-(2,4-dimethylpiperazin-1-yl)pyridin-3-yl)pyrazolo[1,5-a]pyrimidine-3-carboxamide]	+++ (Compounds with a Cisplatin sensitization value of <0.02 μM are marked with “+++.”)
CCN1CCN(C(=O)C2CCN(c3c(F)cncc3NC(=O)c3c(N)nn4cc(F)cnc34)CC2)CC1 [I-G-9, 2-amino-N-(4-(4-(4-ethylpiperazine-1-carbonyl)piperidin-1-yl)-5-fluoropyridin-3-yl)-6-fluoropyrazolo[1,5-a]pyrimidine-3-carboxamide]	+++ (Compounds with a Cisplatin sensitization value of <0.02 μM are marked with “+++.”)
Nc1nn2cc(F)cnc2c1C(=O)Nc1cncc(F)c1N1CCN(C(=O)CN2CCCC2)CC1 [I-N-187, 2-amino-6-fluoro-N-(5-fluoro-4-(4-(2-(pyrrolidin-1-yl)acetyl)piperazin-1-yl)pyridin-3-yl)pyrazolo[1,5-a]pyrimidine-3-carboxamide]	+++ (Compounds with a Cisplatin sensitization value of <0.02 μM are marked with “+++.”)
Nc1nn2cc(F)cnc2c1C(=O)Nc1cncc(F)c1N1CCC(C(=O)N2CC(N3CCC3)C2)CC1 [I-G-49, N-(4-(4-([1,3′-biazetidine]-1′-carbonyl)piperidin-1-yl)-5-fluoropyridin-3-yl)-2-amino-6-fluoropyrazolo[1,5-a]pyrimidine-3-carboxamide]	+++ (Compounds with a Cisplatin sensitization value of <0.02 μM are marked with “+++.”)
CC(C)(C#N)c1cnc2c(C(=O)Nc3cnccc3N3CCN(C4COC4)CC3)c(N)nn2c1 [I-N-142, 2-amino-6-(2-cyanopropan-2-yl)-N-(4-(4-(oxetan-3-yl)piperazin-1-yl)pyridin-3-yl)pyrazolo[1,5-a]pyrimidine-3-carboxamide]	++ (Compounds with a Cisplatin sensitization value >0.02 μM but <0.2 μM are marked with “++.”)
C[N+]1([O-])CCN(C(=O)C2CCN(c3c(F)cncc3NC(=O)c3c(N)nn4cc(F)cnc34)CC2)CC1 [I-G-95, 4-(1-(3-(2-amino-6-fluoropyrazolo[1,5-a]pyrimidine-3-carboxamido)-5-fluoropyridin-4-yl)piperidine-4-carbonyl)-1-methylpiperazine 1-oxide]	+++ (Compounds with a Cisplatin sensitization value of <0.02 μM are marked with “+++.”)
Nc1nn2cc(F)cnc2c1C(=O)Nc1cncc(F)c1N1CCN2CCOC[C@H]2C1 [I-N-135, (R)-2-amino-6-fluoro-N-(5-fluoro-4-(hexahydropyrazino[2,1-c][1,4]oxazin-8(1H)-yl)pyridin-3-yl)pyrazolo[1,5-a]pyrimidine-3-carboxamide]	+++ (Compounds with a Cisplatin sensitization value of <0.02 μM are marked with “+++.”)
CN(C)CCCN(C)C(=O)C1CCN(c2c(F)cncc2NC(=O)c2c(N)nn3cc(F)cnc23)CC1 [I-G-16, 2-amino-N-(4-(4-((3-(dimethylamino)propyl)(methyl)carbamoyl)piperidin-1-yl)-5-fluoropyridin-3-yl)-6-fluoropyrazolo[1,5-a]pyrimidine-3-carboxamide]	+++ (Compounds with a Cisplatin sensitization value of <0.02 μM are marked with “+++.”)
COc1ccncc1NC(=O)c1c(N)nn2cc(Cl)cnc12 [I-O-57, 2-amino-6-chloro-N-(4-methoxypyridin-3-yl)pyrazolo[1,5-a]pyrimidine-3-carboxamide]	+++ (Compounds with a Cisplatin sensitization value of <0.02 μM are marked with “+++.”)
N#CCc1cnc2c(C(=O)Nc3cnccc3OCC(F)(F)F)c(N)nn2c1 [I-O-34, 2-amino-6-(cyanomethyl)-N-(4-(2,2,2-trifluoroethoxy)pyridin-3-yl)pyrazolo[1,5-a]pyrimidine-3-carboxamide]	++ (Compounds with a Cisplatin sensitization value >0.02 μM but <0.2 μM are marked with “++.”)
CN1CC[C@@H](OC2CCN(c3ccncc3NC(=O)c3c(N)nn4cc(F)cnc34)CC2)C1 [I-N-131]	+++ (Compounds with a Cisplatin sensitization value of <0.02 μM are marked with “+++.”)
Nc1nn2cc(F)cnc2c1C(=O)Nc1cnccc1N1CCN2C(=O)CCCC2C1 (stereo not drawn) [I-N-244, 2-amino-6-fluoro-N-(4-(6-oxohexahydro-1H-pyrido[1,2-a]pyrazin-2(6H)-yl)pyridin-3-yl)pyrazolo[1,5-a]pyrimidine-3-carboxamide]	+++ (Compounds with a Cisplatin sensitization value of <0.02 μM are marked with “+++.”)
Nc1nn2cc(F)cnc2c1C(=O)Nc1cncc(F)c1N1CCN2C(=O)CCCC2C1 (stereo not drawn) [I-N-277, 2-amino-6-fluoro-N-(5-fluoro-4-(6-oxohexahydro-1H-pyrido[1,2-a]pyrazin-2(6H)-yl)pyridin-3-yl)pyrazolo[1,5-a]pyrimidine-3-carboxamide]	+++ (Compounds with a Cisplatin sensitization value of <0.02 μM are marked with “+++.”)
CN(C)C1CCN(c2ccncc2NC(=O)c2c(N)nn3cc(Cl)cnc23)CC1 [I-N-37, 2-amino-6-chloro-N-(4-(4-(dimethylamino)piperidin-1-yl)pyridin-3-yl)pyrazolo[1,5-a]pyrimidine-3-carboxamide]	++ (Compounds with a Cisplatin sensitization value >0.02 μM but <0.2 μM are marked with “++.”)
Nc1nn2cc(F)cnc2c1C(=O)Nc1cncc(F)c1N1CCC(c2nccs2)CC1 [I-N-184, 2-amino-6-fluoro-N-(5-fluoro-4-(4-(thiazol-2-yl)piperidin-1-yl)pyridin-3-yl)pyrazolo[1,5-a]pyrimidine-3-carboxamide]	++ (Compounds with a Cisplatin sensitization value >0.02 μM but <0.2 μM are marked with “++.”)
CN1CCN(C(=O)C2CCCN(c3c(F)cncc3NC(=O)c3c(N)nn4cc(F)cnc34)C2)CC1 (stereo not drawn) [I-N-289, 2-amino-6-fluoro-N-(5-fluoro-4-(3-(4-methylpiperazine-1-carbonyl)piperidin-1-yl)pyridin-3-yl)pyrazolo[1,5-a]pyrimidine-3-carboxamide]	++ (Compounds with a Cisplatin sensitization value >0.02 μM but <0.2 μM are marked with “++.”)
Nc1nn2cc(F)cnc2c1C(=O)Nc1cnccc1N1CCN(C2COC2)C2CC21 (stereo not drawn) [I-N-112, 2-amino-6-fluoro-N-(4-(5-(oxetan-3-yl)-2,5-diazabicyclo[4.1.0]heptan-2-yl)pyridin-3-yl)pyrazolo[1,5-a]pyrimidine-3-carboxamide]	+ (Compounds with a Cisplatin sensitization value >0.2 μM but <5 μM are marked with “+.”)
CN1CCC(Oc2c(Cl)cncc2NC(=O)c2c(N)nn3cc(Cl)cnc23)CC1 [I-O-46, 2-amino-6-chloro-N-(5-chloro-4-((1-methylpiperidin-4-yl)oxy)pyridin-3-yl)pyrazolo[1,5-a]pyrimidine-3-carboxamide]	+ (Compounds with a Cisplatin sensitization value >0.2 μM but <5 μM are marked with “+.”)
Nc1nn2cc(F)cnc2c1C(=O)Nc1cncc(F)c1N1CCCCC1 [I-N-270, 2-amino-6-fluoro-N-(5-fluoro-4-(piperidin-1-yl)pyridin-3-yl)pyrazolo[1,5-a]pyrimidine-3-carboxamide]	+++ (Compounds with a Cisplatin sensitization value of <0.02 μM are marked with “+++.”)
Nc1nn2cc(F)cnc2c1C(=O)Nc1cncc(F)c1N1CCN2CCOC[C@@H]2C1 [I-N-137, (S)-2-amino-6-fluoro-N-(5-fluoro-4-(hexahydropyrazino[2,1-c][1,4]oxazin-8(1H)-yl)pyridin-3-yl)pyrazolo[1,5-a]pyrimidine-3-carboxamide]	++ (Compounds with a Cisplatin sensitization value >0.02 μM but <0.2 μM are marked with “++.”)
Nc1nn2cc(Cl)cnc2c1C(=O)Nc1cnccc1N1CCN2CCC1CC2 [I-N-56, N-(4-(1,4-diazabicyclo[3.2.2]nonan-4-yl)pyridin-3-yl)-2-amino-6-chloropyrazolo[1,5-a]pyrimidine-3-carboxamide]	++ (Compounds with a Cisplatin sensitization value >0.02 μM but <0.2 μM are marked with “++.”)
COCCN1CCN(c2c(F)cncc2NC(=O)c2c(N)nn3cc(F)cnc23)CC1 [I-N-127, 2-amino-6-fluoro-N-(5-fluoro-4-(4-(2-methoxyethyl)piperazin-1-yl)pyridin-3-yl)pyrazolo[1,5-a]pyrimidine-3-carboxamide]	+++ (Compounds with a Cisplatin sensitization value of <0.02 μM are marked with “+++.”)
CC(C)(C)Oc1ccncc1NC(=O)c1c(N)nn2cc(F)cnc12 [I-O-88, 2-amino-N-(4-(tert-butoxy)pyridin-3-yl)-6-fluoropyrazolo[1,5-a]pyrimidine-3-carboxamide]	+++ (Compounds with a Cisplatin sensitization value of <0.02 μM are marked with “+++.”)
CN1CC[C@H](Oc2ccncc2NC(=O)c2c(N)nn3cc(Cl)cnc23)C1 [I-O-69, (S)-2-amino-6-chloro-N-(4-((1-methylpyrrolidin-3-yl)oxy)pyridin-3-yl)pyrazolo[1,5-a]pyrimidine-3-carboxamide]	++ (Compounds with a Cisplatin sensitization value >0.02 μM but <0.2 μM are marked with “++.”)
N#CCc1cnc2c(C(=O)Nc3cnccc3OC3CCNCC3)c(N)nn2c1 [I-O-84, 2-amino-6-(cyanomethyl)-N-(4-(piperidin-4-yloxy)pyridin-3-yl)pyrazolo[1,5-a]pyrimidine-3-carboxamide]	++ (Compounds with a Cisplatin sensitization value >0.02 μM but <0.2 μM are marked with “++.”)

Source: patent US11117900B2 (Vertex Pharmaceuticals Incorporated, priority 2012, dated 2021)
